# Test results: paper PMC7259638, “Characterization of the intestinal absorption of morroniside from Cornus officinalis Sieb. et Zucc via a Caco-2 cell monolayer model” (PLoS ONE, 2020)
# Read-outs that look alike come from different tables or passages of the source.
# Legend:
# BCRP = assay: Effects of influx/efflux transporter inhibitors and CO on morroniside transport in Caco-2 cell monolayers; assay type: in vitro ADME, human; conditions: human, 25 μM morroniside
# Experimental: (§1) An initial stock solution of morroniside in methanol was prepared. The stock solution was then diluted with HBSS (pH = 7.4) and the final concentration of methanol in HBSS remained at 0.5%. […] Caco-2 cells were seeded at a density of 5 × 10^4 cells/cm^2 in a 12-well plate. The transepithelial electrical resistance (TEER) value was measured with a Millipore ERS voltameter (Burlington, MA, USA) in order to evaluate and determine monolayer integrity. The monolayers were ready for experiments 19 to 22 days after seeding.
# (§2) During incubation, the culture medium was refreshed every other day. The culture medium was discarded, and 500 μL of HBSS was added to each well and incubated for 20 min at 37 °C. Afterward, each well was rinsed two times with HBSS at 37 °C. Three concentrations of morroniside (5, 25 and 100 μM) were added to either the apical (AP, 0.5 mL) or basolateral side (BL, 1.5 mL), wheras the receiving chamber contained the corresponding volume of blank HBSS medium (pH = 7.4). Incubation was performed at 37 °C for 180 min, with shaking at 50 rpm. To assess drug transport from the AP to BL side, after incubation for 5, 15, 30, 45, 60, 90, 120 or 180 min, 50 μL of the solution from the BL or AP side was collected, and replaced with an equal volume of HBSS. To study the effect of pH on morroniside (5, 25 and 100 μM) transport, the experiments were performed in HBSS, which was adjusted to pH 6.0 or pH 7.4 on the AP side depending on the experiment, and to pH 7.4 on the BL side at 37 °C.
# (§3) Efflux and influx transporters were investigated for their effects on the transport flux of morroniside. Several ATP-binding cassette transporter inhibitors, including one p-glycoprotein (P-gp) inhibitor (100μM verapamil); one multidrug resistance- related protein (MRP) inhibitor (100 μM, MK571), one multidrug resistance- related protein 3 (MRP3, the main BL MRP) inhibitor ([…]) and one multidrug resistance- related protein 2 (MRP2, the main AP MRP) inhibitor (200μM indomethacin); and one breast cancer resistance protein (BCRP) inhibitor (25μM apigenin) were used to determine the transporters involved in the efflux transport of morroniside. The inhibition of the influx transport of morroniside transport across the Caco-2 cell monolayer was investigated by the addition of 50 μM sodium vanadate and cimetidine to evaluate the selectivity of Na/K-ATPase. The pH and temperature conditions of this assay were 7.4 and 37 °C, respectively.
# (§4) UPLC-MS/MS data acquisition was performed using Analyst 1.5.2 and MultiQuant 2.1.1 software (Applied Biosystems). All data are shown as the mean ± standard deviation, n = 3. The data were analyzed using SPSS 20.0. In the Caco-2 cell model, the rate of transport was obtained from the amount transported versus the time curve using linear regression. The permeability coefficient of each compound was calculated using the following equation: Papp = (dQ/dt)/(A·C0).
# (§5) where, dQ/dt is the rate of drug transport, C0 is the initial concentration of the compound in the donor chamber and A represents the surface area of the cell monolayer. The efflux ratio P was determined by calculating the ratio of Papp in the secretory (BA) direction divided by that in the absorptive (AB) direction, according to the following equation: P=PappBA/PappAB
# MRP3 = assay: as above; assay type: in vitro ADME, human; conditions: human, 25 μM morroniside
# Experimental: as §1, §2, §3, §4, §5
# [1] = test system: Na+/K+ pump (Na/K-ATPase); assay: as above; assay type: in vitro ADME, human; conditions: human, Caco-2, pH 7.4, with sodium vanadate 50 μM, with 50 μM sodium vanadate (Na+/K+ pump); read-out: P (efflux ratio PappBA/PappAB)
# Experimental: as §1, §2, §3, §4, §5
# Caco-2 cell monolayers [2] = assay: as above; assay type: in vitro ADME, human; conditions: for PappAB (mean): AP to BL; for PappBA (mean): BL to AP; for PappAB / PappBA: pH 7.4, 37 °C
# Experimental: as §1, §2, §3, §4, §5
# OATs = assay: as above; assay type: in vitro ADME, human; conditions: human, Caco-2, pH 7.4, with cimetidine 50 μM, with 50 μM cimetidine (OATs); read-out: P (efflux ratio PappBA/PappAB)
# Experimental: as §1, §2, §3, §4, §5
# P-gp = assay: as above; assay type: in vitro ADME, human; conditions: human, Caco-2, pH 7.4, with verapamil 100 μM, 25 μM morroniside; with verapamil 100 μM (P-gp inhibitor)
# Experimental: as §1, §2, §3, §4, §5
# [3] = parameters: method as in PMID 17596900, doi:10.1177/1934578X19856526; conditions: rats; oral vs intravenous; cited from earlier work
# Caco-2 cell monolayers [4] = assay: Transport of morroniside across Caco-2 cell monolayers (bidirectional, concentration and pH); assay type: in vitro ADME, human; conditions: for PappAB AP-BL: AP to BL; for PappAB AP-BL / PappAB BL-AP: pH 7.4; for PappAB AP-BL / PappAB BL-AP / PappAB: 37 °C, n = 3; for PappAB BL-AP: BL to AP
# Experimental: as §1, §2, §4, §5
# [5] = as above; assay type: in vitro ADME, human; conditions: human
# Experimental: as §1, §2, §4, §5
# [6] = 25 μM morroniside, with verapamil 100 μM
# [7] = after 0.63 mg/mL CO (containing 25 μM morroniside) was added
# [8] = with 50 μM sodium vanadate (Na+/K+ pump)
smiles,measurement,setting,value
"COC(=O)C1=CO[C@@H](O[C@@H]2O[C@H](CO)[C@@H](O)[C@H](O)[C@H]2O)[C@@H]2[C@H](C)O[C@@H](O)C[C@H]12 [morroniside, Morroniside]","efflux ratio at 180 min, 25 μM","BCRP; Caco-2, pH 7.4, with apigenin 25 μM, with apigenin 25 μM (BCRP inhibitor), read-out: Efflux ratio P",0.45
same,"Papp B→A at 180 min, 25 μM","BCRP; Caco-2, pH 7.4, BL to AP, with apigenin 25 μM, read-out: PappBA (mean)",2.78 ×10⁻⁶ cm/s
same,"efflux ratio at 180 min, 25 μM","MRP3; Caco-2, pH 7.4, with benzbromarone 50 μM, with benzbromarone 50 μM (MRP3 inhibitor), read-out: Efflux ratio P",1.72
same,"Papp A→B at 180 min, 25 μM","MRP3; Caco-2, pH 7.4, AP to BL, with benzbromarone 50 μM, read-out: PappAB (mean)",1.77 ×10⁻⁶ cm/s
same,efflux ratio at 180 min,[1],1.65
same,PappAB (mean),"Caco-2 cell monolayers [2]; 25 μM morroniside, Control",1.9 ×10⁻⁶ cm/s
same,PappAB (mean),"Caco-2 cell monolayers [2]; 25 μM morroniside, with apigenin 25 μM",6.12 ×10⁻⁶ cm/s
same,PappAB (mean),Caco-2 cell monolayers [2]; [6],1.84 ×10⁻⁶ cm/s
same,PappBA (mean),"Caco-2 cell monolayers [2]; 25 μM morroniside, Control",3.06 ×10⁻⁶ cm/s
same,PappBA (mean),"Caco-2 cell monolayers [2]; 25 μM morroniside, with benzbromarone 50 μM",3.04 ×10⁻⁶ cm/s
same,PappBA (mean),Caco-2 cell monolayers [2]; [6],2.93 ×10⁻⁶ cm/s
same,change of PappAB vs control,"Caco-2 cell monolayers [2]; 25 μM morroniside, after addition of apigenin (25 μM), p < 0.05",increased significantly
same,decrease in the efflux ratio,"Caco-2 cell monolayers [2]; 25 μM morroniside, after addition of apigenin (25 μM), vs control",72.05%
same,PappAB (mean),"Caco-2 cell monolayers [2]; morroniside given as CO 0.63 mg/mL (containing 25 μM morroniside), in 1e-6 cm/s",4.284
same,PappBA (mean),Caco-2 cell monolayers [2]; morroniside given as CO 0.63 mg/mL (containing 25 μM morroniside),2.11 ×10⁻⁶ cm/s
same,PappAB,"Caco-2 cell monolayers [2]; Control (no inhibitor), influx transporter experiment",1.90±0.5 ×10^-6cm/s
same,change of PappAB vs control,Caco-2 cell monolayers [2]; [7],increased significantly
same,change of PappBA vs control,Caco-2 cell monolayers [2]; [7],not significantly different
same,change of PappAB vs control,Caco-2 cell monolayers [2]; after MK 571 was added,increased
same,change of PappBA vs control,Caco-2 cell monolayers [2]; after MK 571 was added,no effect
same,change of AP to BL flux (PappAB) vs control,"Caco-2 cell monolayers [2]; after indomethacin was added, p < 0.001",significant increase
same,change of PappAB and PappBA vs control,Caco-2 cell monolayers [2]; before and after addition of verapamil,did not change significantly
same,change of PappAB or PappBA vs control,Caco-2 cell monolayers [2]; cotreatment with 200 μM benzbromarone,did not alter
same,BCRP substrate status,"Caco-2 cell monolayers [2]; from effect of apigenin (25 μM, BCRP inhibitor)",substrate of BCRP
same,MRP2 substrate status,Caco-2 cell monolayers [2]; from effect of indomethacin (MRP2 inhibitor) on AP to BL flux,substrate of MRP2
same,P-gp involvement in transport,Caco-2 cell monolayers [2]; from effect of verapamil (P-gp inhibitor),might not be involved
same,change of morroniside transport vs control,Caco-2 cell monolayers [2]; with 50 μM cimetidine,did not significantly increase or decrease
same,PappAB,Caco-2 cell monolayers [2]; with 50 μM cimetidine (OATs),1.82±0.5 ×10^-6cm/s
same,PappBA,Caco-2 cell monolayers [2]; with 50 μM cimetidine (OATs),3.1±0.7 ×10^-6cm/s
same,change of morroniside transport vs control,Caco-2 cell monolayers [2]; with 50 μM sodium vanadate,did not significantly increase or decrease
same,PappAB,Caco-2 cell monolayers [2]; [8],1.89±0.4 ×10^-6cm/s
same,PappBA,Caco-2 cell monolayers [2]; [8],3.11±0.7 ×10^-6cm/s
same,efflux ratio at 180 min,OATs,1.7
same,"efflux ratio at 180 min, 25 μM",P-gp,1.59
same,absolute oral bioavailability,[3],3.6–7.0%
same,PappAB AP-BL,Caco-2 cell monolayers [4]; 5 μM morroniside,2.66±0.60 ×10^-6cm/s
same,PappAB BL-AP,Caco-2 cell monolayers [4]; 5 μM morroniside,4.10±0.86 ×10^-6cm/s
same,PappAB AP-BL,Caco-2 cell monolayers [4]; 100 μM morroniside,1.59±0.41 ×10^-6cm/s
same,PappAB BL-AP,Caco-2 cell monolayers [4]; 100 μM morroniside,2.67±0.48 ×10^-6cm/s
same,PappAB,"Caco-2 cell monolayers [4]; AP side pH 6.0, BL side pH 7.4, 25μM morroniside",0.61±0.15 ×10^-6cm/s
same,PappAB,"Caco-2 cell monolayers [4]; AP side pH 7.4, 100μM morroniside",1.86±0.33 ×10^-6cm/s
same,intestinal absorption assessed from Papp level,"Caco-2 cell monolayers [4]; Papp values at the level of 10^−6, Caco-2 transwell",poor intestinal absorption
same,PappAB at pH 7.4 compared with pH 6.0,"Caco-2 cell monolayers [4]; three concentrations (5, 25, 100 μM), p<0.05",significantly higher
same,"Papp A→B at 180 min, 5 μM","[5]; Caco-2, AP side pH 6.0, BL side pH 7.4, 5μM morroniside, 37 °C, n = 3, read-out: PappAB",0.55 ± 0.07 ×10⁻⁶ cm/s
same,"Papp A→B at 180 min, 100 μM","[5]; Caco-2, AP side pH 6.0, BL side pH 7.4, 100μM morroniside, 37 °C, n = 3, read-out: PappAB",0.62 ± 0.1 ×10⁻⁶ cm/s
same,"Papp A→B at 180 min, 5 μM","[5]; Caco-2, pH 7.4, 5 μM morroniside, AP to BL, over 3 h, read-out: Papp (AP to BL)",2.66 ×10⁻⁶ cm/s
same,"Papp A→B at 180 min, 25 μM","[5]; Caco-2, pH 7.4, 25 μM morroniside, AP to BL, pH 7.4, 37 °C, n = 3, read-out: PappAB AP-BL",1.83 ± 0.65 ×10⁻⁶ cm/s
same,"Papp A→B at 180 min, 100 μM","[5]; Caco-2, pH 7.4, 100 μM morroniside, AP to BL, over 3 h, read-out: Papp (AP to BL)",1.59 ×10⁻⁶ cm/s
same,"Papp A→B at 180 min, 5 μM","[5]; Caco-2, pH 7.4, AP side pH 7.4, 5μM morroniside, 37 °C, n = 3, read-out: PappAB",1.88 ± 0.49 ×10⁻⁶ cm/s
same,"Papp A→B at 180 min, 25 μM","[5]; Caco-2, pH 7.4, AP side pH 7.4, 25μM morroniside, 37 °C, n = 3, read-out: PappAB",1.92 ± 0.52 ×10⁻⁶ cm/s
same,Papp A→B at 180 min,"[5]; Caco-2, pH 7.4, range over 5, 25 and 100 μM, AP-to-BL, read-out: apparent permeability coefficient (Papp) AP-to-BL",1.59 to 2.66 ×10⁻⁶ cm/s
same,"Papp B→A at 180 min, 5 μM","[5]; Caco-2, pH 7.4, 5 μM morroniside, BL to AP, over 3 h",4.1 ×10⁻⁶ cm/s
same,"Papp B→A at 180 min, 100 μM","[5]; Caco-2, pH 7.4, 100 μM morroniside, BL to AP, over 3 h",2.67 ×10⁻⁶ cm/s
same,Papp B→A at 180 min,"[5]; Caco-2, pH 7.4, range over 5, 25 and 100 μM, BL-to-AP, read-out: apparent permeability coefficient (Papp) BL-to-AP",2.67 to 4.1 ×10⁻⁶ cm/s
same,"Papp B→A at 180 min, 25 μM","[5]; Caco-2, 25 μM morroniside, BL to AP, pH 7.4, 37 °C, n = 3, read-out: PappAB BL-AP",2.92 ± 0.63 ×10⁻⁶ cm/s
